One block for each compound: values may come before it.
Assay: photoluminescence quantum yield (fraction); solvent given as SMILES

- photoluminescence quantum yield (in CC#N): 0.04
- photoluminescence quantum yield (in CCCCCC): 0.08
- photoluminescence quantum yield (in CO): 0.16
- photoluminescence quantum yield (in ClC(Cl)Cl): 0.07
- photoluminescence quantum yield (in ClCCl): 0.06
Structure (SMILES): CC1=CC(C)=[N+]2C1=C(c1ccc3cccnc3n1)c1c(C)cc(C)n1[B-]2(F)F

- photoluminescence quantum yield (in CC#N): 0.89
- photoluminescence quantum yield (in ClCCl): 0.99
Structure (SMILES): O=c1c2cc(Cl)ccc2nc2n1[B-](F)(F)[n+]1ccccc1-2

- photoluminescence quantum yield (in CC#N): 0.39
Structure (SMILES): c1ccc(-c2nc(-c3cccs3)[nH]c2-c2ccccc2)cc1

- photoluminescence quantum yield (in CS(C)=O): 0.08
Structure (SMILES): C[N+]1=C(/C=C/C=C2/N(CCCc3ccccc3)c3ccccc3C2(C)C)C(C)(C)c2ccccc21

- photoluminescence quantum yield (in ClC(Cl)Cl): 0.46
Structure (SMILES): CN(C)c1ccc(-c2cc(-c3cccs3)nc(-c3ccccc3)n2)cc1

- photoluminescence quantum yield (in ClC(Cl)Cl): 0.36
- photoluminescence quantum yield (in ClCCl): 0.36
Structure (SMILES): COc1ccc(C2=[N+]3C(=Nc4c(-c5ccccc5)cc(-c5ccc(OC)cc5)n4[B-]3(F)F)C(c3ccccc3)=C2)cc1

- photoluminescence quantum yield (in C1CCCCC1): 0.7
Structure (SMILES): COc1ccc(-c2ccc(-c3ccccc3)cc2)cc1

- photoluminescence quantum yield (in ClCCl): 0.9
Structure (SMILES): O=[N+]([O-])c1ccc([N+]2=Cc3ccc4ccccc4c3O[B-]2(F)F)cc1

- photoluminescence quantum yield (in ClC(Cl)Cl): 0.16
Structure (SMILES): COc1ccc(-c2nc(-c3ccccc3)c(N(c3ccccc3)c3ccccc3)s2)cc1

- photoluminescence quantum yield (in C1CCCCC1): 0.48
- photoluminescence quantum yield (in CCOC(C)=O): 0.46
- photoluminescence quantum yield (in CO): 0.32
Structure (SMILES): c1ccc2cc(-n3c4ccccc4c4ccccc43)ccc2c1

- photoluminescence quantum yield (in CS(C)=O): 0.11
Structure (SMILES): COc1cccc2cc(-c3cc4cccc(OC)c4oc3=O)oc12

- photoluminescence quantum yield (in C1CCCCC1): 0.006
- photoluminescence quantum yield (in CO): 0.001
Structure (SMILES): COc1ccc(/C=C/c2nc3ccccc3o2)cc1

- photoluminescence quantum yield (in CC#N): 0.015
Structure (SMILES): COc1ccc(-c2csc(/C(C#N)=C/c3ccc(C(F)(F)F)cc3)n2)cc1

- photoluminescence quantum yield (in C1CCCCC1): 0.72
Structure (SMILES): C(#Cc1ccccc1)C1=Cc2ccc3ccccc3c2NB1c1ccccc1

- photoluminescence quantum yield (in ClCCl): 0.35
Structure (SMILES): C(=C\c1cnc2ccccc2n1)/c1ccc(-c2ccc(N(c3ccccc3)c3ccccc3)cc2)cc1

- photoluminescence quantum yield (in CC#N): 0.054
Structure (SMILES): COc1ccc(-c2pc3ccccc3s2)cc1 (configuration not stated)

- photoluminescence quantum yield (in C1COCCO1): 0.16
- photoluminescence quantum yield (in CC#N): 0.13
- photoluminescence quantum yield (in CCCCCC): 0.16
- photoluminescence quantum yield (in CCCCCCC): 0.16
- photoluminescence quantum yield (in CCCO): 0.13
- photoluminescence quantum yield (in CCOC(C)=O): 0.13
- photoluminescence quantum yield (in CS(C)=O): 0.21
- photoluminescence quantum yield (in ClC(Cl)Cl): 0.18
- photoluminescence quantum yield (in ClCCl): 0.22
Structure (SMILES): COc1ccc(C#Cc2ccc(C#N)cc2)cc1OC

Continued, compound first:

Structure (SMILES): O=C(c1ccc(N2c3ccccc3Oc3ccccc32)cc1)c1ccc(N2c3ccccc3Oc3ccccc32)cc1
- photoluminescence quantum yield (in Cc1ccccc1): 0.44
- photoluminescence quantum yield (in c1cc(-n2c3ccccc3c3ccccc32)cc(-n2c3ccccc3c3ccccc32)c1): 0.7

Structure (SMILES): CN(C)c1ccc(/C=C/c2nc3ccccc3s2)cc1
- photoluminescence quantum yield (in C1CCCCC1): 0.001
- photoluminescence quantum yield (in C1CCOC1): 0.003
- photoluminescence quantum yield (in C1COCCO1): 0.0022
- photoluminescence quantum yield (in CC#N): 0.0066
- photoluminescence quantum yield (in CC(C)O): 0.0048
- photoluminescence quantum yield (in CCCCCC): 0.0018
- photoluminescence quantum yield (in CCCCCCC): 0.0014
- photoluminescence quantum yield (in CCO): 0.0045
- photoluminescence quantum yield (in CCOC(C)=O): 0.0053
- photoluminescence quantum yield (in CCOCC): 0.002
- photoluminescence quantum yield (in CN(C)C=O): 0.007
- photoluminescence quantum yield (in CO): 0.003
- photoluminescence quantum yield (in CS(C)=O): 0.0078
- photoluminescence quantum yield (in O): 0.0012
- photoluminescence quantum yield (in OCC(O)CO): 0.115

Structure (SMILES): COc1ccc(N(c2ccc(OC)cc2)c2cc3ccc4cc(B(c5c(C)cc(C)cc5C)c5c(C)cc(C)cc5C)cc5ccc(c2)c3c45)cc1
- photoluminescence quantum yield (in C1CCOC1): 0.44
- photoluminescence quantum yield (in CC(C)=O): 0.21
- photoluminescence quantum yield (in CCCCCC): 0.22
- photoluminescence quantum yield (in Cc1ccccc1): 0.27
- photoluminescence quantum yield (in ClC(Cl)Cl): 0.23
- photoluminescence quantum yield (in ClCCl): 0.42

Structure (SMILES): N[C@@H](Cn1nnc2cc(-c3ccc4c(c3)OCO4)ccc21)C(=O)O
- photoluminescence quantum yield (in CO): 0.02

Structure (SMILES): F[Si](c1c2ccccc2cc2ccccc12)(c1c2ccccc2cc2ccccc12)c1c2ccccc2cc2ccccc12
- photoluminescence quantum yield (in C1CCOC1): 0.033
- photoluminescence quantum yield (in ClC(Cl)Cl): 0.036

Structure (SMILES): CC1=C(C#Cc2ccc(N(c3ccccc3)c3ccccc3)cc2)C(C)=[N+]2C1=C(c1ccccc1)c1c(C)c(C#Cc3ccc(N(c4ccccc4)c4ccccc4)cc3)c(C)n1[B-]2(F)F
- photoluminescence quantum yield (in C1CCOC1): 0.31

Structure (SMILES): CN(C)c1ccc(C2=Nc3sc4cc(F)ccc4[n+]3[B-](F)(F)O2)cc1
- photoluminescence quantum yield (in C1CCOC1): 0.72
- photoluminescence quantum yield (in CC#N): 0.13
- photoluminescence quantum yield (in CC(C)=O): 0.23
- photoluminescence quantum yield (in Cc1ccccc1): 0.85
- photoluminescence quantum yield (in ClCCl): 0.74

Structure (SMILES): COc1ccc(N(c2ccc(OC)cc2)c2ccc3c(c2)C2(c4cc(N(c5ccc(OC)cc5)c5ccc(OC)cc5)ccc4C=C3)c3ccccc3-c3ccccc32)cc1
- photoluminescence quantum yield (in ClCCl): 0.9

Structure (SMILES): CCCCCCc1ccc(-n2c3[n+](c4c5ccccc5c5ccccc5c42)[B-](C)(C)c2cc(N(c4ccccc4)c4ccccc4)ccc2-3)cc1
- photoluminescence quantum yield (in C1CCOC1): 0.86
- photoluminescence quantum yield (in CC#N): 0.73
- photoluminescence quantum yield (in Cc1ccccc1): 0.83
- photoluminescence quantum yield (in ClCCl): 0.88

Structure (SMILES): N#Cc1ccc2c(c1)C1(c3cc(C#N)ccc3-2)c2ccccc2N(c2ccccc2)c2ccccc21
- photoluminescence quantum yield (in Cc1ccccc1): 0.47

Structure (SMILES): COC(=O)c1cc(=O)n(C)c2cc(-c3cc4c5c(c3)CCCN5CCC4)sc12
- photoluminescence quantum yield (in CC#N): 0.02
- photoluminescence quantum yield (in CCO): 0.09
- photoluminescence quantum yield (in CN(C)C=O): 0.1
- photoluminescence quantum yield (in CO): 0.3
- photoluminescence quantum yield (in CS(C)=O): 0.17
- photoluminescence quantum yield (in ClC(Cl)Cl): 0.48
- photoluminescence quantum yield (in ClCCl): 0.25

Structure (SMILES): F[B-]1(F)OC(c2ccc(C(F)(F)F)cc2)=Cc2cc(Cl)nc[n+]21
- photoluminescence quantum yield (in C1CCOC1): 0.01
- photoluminescence quantum yield (in CC#N): 0.01
- photoluminescence quantum yield (in Cc1ccccc1): 0.04
- photoluminescence quantum yield (in ClC(Cl)Cl): 0.01
- photoluminescence quantum yield (in ClCCl): 0.01

Structure (SMILES): COc1c2ccccc2c(OC)c2c(C#CC(C)(C)C)c3cc4ccccc4cc3c(C#CC(C)(C)C)c12
- photoluminescence quantum yield (in C1CCOC1): 0.11
- photoluminescence quantum yield (in Cc1ccccc1): 0.1
- photoluminescence quantum yield (in ClCCl): 0.09

Structure (SMILES): Nc1cccc2cn[nH]c12
- photoluminescence quantum yield (in CC#N): 0.3
- photoluminescence quantum yield (in CO): 0.11
- photoluminescence quantum yield (in O): 0.07

Structure (SMILES): Cc1ccc(-c2nc3c([nH]2)C2=CC(=O)S[C@]2(C)[C@@]2(C)SC(=O)C=C32)cc1
- photoluminescence quantum yield (in CC#N): 0.14

Structure (SMILES): c1ccc(C2=Nc3cccc4[n+]3[B-](c3ccccc3)(N2)NC(c2ccccc2)=N4)cc1
- photoluminescence quantum yield (in ClCCl): 0.13

Structure (SMILES): Cc1cc2c(ccc3c(C)[n+](C)c(C)cc32)c(C)[n+]1C
- photoluminescence quantum yield (in CC#N): 0.29

Structure (SMILES): Cc1ccc(C2=C3C=CC(Nc4ccccc4)=[N+]3[B-](F)(F)n3c(Nc4ccccc4)ccc32)cc1
- photoluminescence quantum yield (in CO): 0.45

Structure (SMILES): c1ccc2c(C3=C(c4cccc5ccccc45)c4cccc5c4c(cc4nc6ccccc6nc45)O3)cccc2c1
- photoluminescence quantum yield (in ClCCl): 0.32

Structure (SMILES): c1cc2ccc1-c1ccc(cc1)-c1ccc([se]1)-c1ccc(cc1)-c1ccc(cc1)-c1ccc([se]1)-c1ccc(cc1)-c1ccc(cc1)-c1ccc-2[se]1
- photoluminescence quantum yield (in C1CCOC1): 0.08

Structure (SMILES): COC(=O)/C(C#N)=c1\s/c(=c2/s/c(=C(/C#N)C(=O)OC)c3cc(-c4ccccc4)sc23)c2sc(-c3ccccc3)cc12
- photoluminescence quantum yield (in Cc1ccccc1): 0.366

Structure (SMILES): CCCCc1cc2cccc3cc(CCCC)c4cc(-c5cc6[b-]7c(c5)c(CCCC)cc5cccc(cc6CCCC)[n+]75)cc1[b-]4[n+]23
- photoluminescence quantum yield (in C1CCCCC1): 0.06

Structure (SMILES): O=[N+]([O-])c1ccc(/C2=C3N=C(C(c4ccccc4)=C/3c3ccccc3)/C(c3ccc([N+](=O)[O-])cc3)=c3\[nH]/c(c(-c4ccccc4)c3-c3ccccc3)=C(/c3ccc([N+](=O)[O-])cc3)C3=N/C(=C(/c4ccc([N+](=O)[O-])cc4)c4[nH]c2c(-c2ccccc2)c4-c2ccccc2)C(c2ccccc2)=C3c2ccccc2)cc1
- photoluminescence quantum yield (in ClCCl): 0.003

Structure (SMILES): COc1ccc(-n2c3ccccc3c3cc(C=C(C#N)C#N)ccc32)cc1
- photoluminescence quantum yield (in C1CCOC1): 0.03
- photoluminescence quantum yield (in CC#N): 0.01
- photoluminescence quantum yield (in CC(C)=O): 0.018
- photoluminescence quantum yield (in CCOC(C)=O): 0.05
- photoluminescence quantum yield (in CO): 0.015
- photoluminescence quantum yield (in CS(C)=O): 0.01
- photoluminescence quantum yield (in Cc1ccccc1): 0.15
- photoluminescence quantum yield (in ClC(Cl)Cl): 0.035

Structure (SMILES): CCN(CC)c1ccc([N+]2=Cc3ccc4c5c(ccc4c3O[B-]2(c2ccccc2)c2ccccc2)C=[N+](c2ccc(N(CC)CC)cc2)[B-](c2ccccc2)(c2ccccc2)O5)cc1
- photoluminescence quantum yield (in Cc1ccccc1): 0.4
- photoluminescence quantum yield (in ClCCl): 0.29

Structure (SMILES): COc1cc(/C=C/c2nc3ccccc3s2)c(OC)cc1/C=C/c1nc(C)nc(/C=C/c2cc(OC)c(/C=C/c3nc4ccccc4s3)cc2OC)n1
- photoluminescence quantum yield (in C1CCOC1): 0.54
- photoluminescence quantum yield (in CC#N): 0.03
- photoluminescence quantum yield (in ClC(Cl)Cl): 0.5
- photoluminescence quantum yield (in ClCCl): 0.46

Structure (SMILES): CN(C)c1ccc(C2=Nc3scc(-c4ccc([N+](=O)[O-])cc4)[n+]3[B-](F)(F)O2)cc1
- photoluminescence quantum yield (in C1CCOC1): 0.001
- photoluminescence quantum yield (in CC#N): 0.001
- photoluminescence quantum yield (in Cc1ccccc1): 0.001
- photoluminescence quantum yield (in ClCCl): 0.001

Structure (SMILES): Cc1ccc(/C(C#N)=C/c2cc(/C=C(\C#N)c3ccc(C)cc3)c(-c3ccc(N(c4ccccc4)c4ccccc4)cc3)cc2-c2ccc(N(c3ccccc3)c3ccccc3)cc2)cc1
- photoluminescence quantum yield (in C1CCCCC1): 0.093
- photoluminescence quantum yield (in C1CCOC1): 0.045
- photoluminescence quantum yield (in CCCCCC): 0.121
- photoluminescence quantum yield (in CCOC(C)=O): 0.049
- photoluminescence quantum yield (in Cc1ccccc1): 0.06
- photoluminescence quantum yield (in ClC(Cl)Cl): 0.048
- photoluminescence quantum yield (in ClCCl): 0.028

Structure (SMILES): CCn1c2ccc(-c3ccc(-c4cccs4)s3)cc2c2cc(-c3ccc(-c4cccs4)s3)ccc21
- photoluminescence quantum yield (in ClCCl): 0.168

Structure (SMILES): CCN(CC)c1ccc2c(-c3ccccc3C(=O)O)c3c([o+]c2c1)/C(=C/c1nc(C)n2ccccc12)CCC3
- photoluminescence quantum yield (in ClCCl): 0.3

Structure (SMILES): Cc1cc(C)c(B(c2ccc(N(c3ccccc3)c3ccccc3)cc2)c2c(C)cc(C)cc2C)c(C)c1
- photoluminescence quantum yield (in Cc1ccccc1): 0.91

Structure (SMILES): c1ccc2cc3c4c(ccc3cc2c1)-c1cccc2cccc-4c12
- photoluminescence quantum yield (in CCCCCCC): 0.023

Structure (SMILES): CC1(C)c2ccccc2N(c2ccc3c(c2)Oc2ccccc2S3(=O)=O)c2ccccc21
- photoluminescence quantum yield (in Cc1ccccc1): 0.48
- photoluminescence quantum yield (in O=P(c1ccccc1)(c1ccccc1)c1ccccc1Oc1ccccc1P(=O)(c1ccccc1)c1ccccc1): 0.98

Structure (SMILES): F[B-]1(F)Oc2ccc(Br)cc2-c2c3c(c4c([n+]21)CCc1ccccc1-4)CCc1ccccc1-3
- photoluminescence quantum yield (in ClCCl): 0.23

Structure (SMILES): Cn1c(=O)c(/N=N/c2ccc(Nc3ccccc3)c(S(=O)(=O)O)c2)c(O)c2ccccc21
- photoluminescence quantum yield (in CS(C)=O): 0.04
